Consider 24 molecules from patent US20110172244A1 (IRM LLC, priority 2008, published 2011).

The EC50 is the concentration at which the effect is half-maximal.

The assay concerns the target T1, human GPR119 (Homo sapiens, UniProt Q8TDV5).
T1 construct: expressed in transfected cells
T1 sequence (Q8TDV5 1-335): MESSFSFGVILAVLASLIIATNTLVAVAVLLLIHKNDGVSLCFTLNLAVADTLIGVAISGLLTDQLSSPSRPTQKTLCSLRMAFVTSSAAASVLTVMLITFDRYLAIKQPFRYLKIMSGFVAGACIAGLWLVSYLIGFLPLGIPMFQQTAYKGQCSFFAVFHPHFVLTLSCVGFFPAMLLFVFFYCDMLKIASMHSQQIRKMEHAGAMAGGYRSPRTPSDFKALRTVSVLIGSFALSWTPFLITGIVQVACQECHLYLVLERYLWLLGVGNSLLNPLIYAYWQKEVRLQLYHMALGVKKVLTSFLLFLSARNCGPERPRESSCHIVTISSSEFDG
Nature of the assay: Cyclic AMP assay in stable cell line (Flp-In-CHO-hGPR119, HTRF). As to conditions: Flp-In-CHO-hGPR119 cells, cAMP HTRF, 1 mM IBMX, 30 minutes at 37° C.; read-out: CHO-GPR119-HTRF (3158) EC50. Format: cell-based. Here is the method: Generation of Stable Cell Line
Flp-In-CHO cells (Invitrogen, Cat. #R758-07) are maintained in Ham's F12 medium supplemented with 10% fetal bovine serum, 1% antibiotic mixture and 2 mM L-glutamine. The cells are transfected with a DNA mixture containing human GPR119 in pcDNA5/FRT vector and the pOG44 vector (1:9) using Fugene6 (Roche), according to the manufacturer's instruction. After 48 hours, the medium is changed to medium supplemented with 400 μg/ml hygromycin B to initiate the selection of stably transfected cells.
Cyclic AMP Assay in Stable Cell Line
To test the activity of compounds of the invention, Flp-In-CHO-hGPR119 cells are harvested and resuspended in DMEM plus 3% lipid-depleted fetal bovine serum. Forth μl of cells are plated in 384 well plates at a density of 15,000 cells/well. IBMX (3-isobutyl-1-methyl-xanthine) is added to the cells to a final concentration of 1 mM, followed by the addition of 500 nl of the compound to be tested. The cells are incubated at 37° C. for 30 minutes. Equal volume (20 μl) of the HTRF reagents, anti-cAMP-Cryptate and cAMP-XL665, are added to the cells. The plates are incubated at room temperature for 1 hour and read on a HTRF reader according to the manufacturer's instruction.
Background: TR-FRET usually uses a lanthanide donor and a delayed reading to cut background.

Each structure is given as a SMILES string.

For the molecule `O=C(c1[nH]c2ccc(F)cc2c1S(=O)(=O)c1ccc(Cl)cc1)N1CCC(Cc2ccccc2)CC1` [Example A1, (4-benzylpiperidin-1-yl)(3-(4-chlorophenylsulfonyl)-5-fluoro-1H-indol-2-yl)methanone], the EC50 was 12 nM.
In the case of `O=C(c1[nH]c2ccccc2c1S(=O)(=O)c1ccc(Cl)cc1)N1CCN(Cc2c(F)cccc2Cl)CC1` [Example A2, (4-(2-chloro-6-fluorobenzyl)piperazin-1-yl)(3-(4-chlorophenylsulfonyl)-1H-indol-2-yl)methanone], the EC50 came out at 7 nM.
For `Cc1ccc(OC2CCN(C(=O)c3[nH]c4ccccc4c3S(=O)(=O)c3ccc(Cl)cc3)CC2)cc1` [Example A3, (3-(4-chlorophenylsulfonyl)-1H-indol-2-yl)(4-(p-tolyloxy)piperidin-1-yl)methanone] the value was 9 nM; for `O=C(c1[nH]c2ccccc2c1S(=O)(=O)c1ccc(Cl)cc1)N1CCC(Oc2ccc(C(F)(F)F)cc2)CC1` [Example A4, (3-(4-chlorophenylsulfonyl)-1H-indol-2-yl)(4-(4-(trifluoromethyl)phenoxy)piperidin-1-yl)methanone], 10 nM.
To `O=C(c1[nH]c2ccccc2c1S(=O)(=O)c1ccc(Cl)cc1)N1CCN(Cc2ccc(Cl)cc2)CC1` [Example A5, (4-(4-chlorobenzyl)piperazin-1-yl)(3-(4-chlorophenylsulfonyl)-1H-indol-2-yl)methanone] belongs 17 nM; to `Cc1ccc(SC2CCN(C(=O)c3[nH]c4ccccc4c3S(=O)(=O)c3ccc(Cl)cc3)CC2)cc1` [Example A6, (3-(4-chlorophenylsulfonyl)-1H-indol-2-yl)(4-(p-tolylthio)piperidin-1-yl)methanone], 18 nM.
Take `O=C(c1[nH]c2ccccc2c1S(=O)(=O)c1ccc(Cl)cc1)N1CCC(CCc2ccccc2)CC1` [Example A7, (3-(4-chlorophenylsulfonyl)-1H-indol-2-yl)(4-phenethylpiperidin-1-yl)methanone]: the EC50 worked out at 18 nM.
With `O=C(c1[nH]c2ccccc2c1S(=O)(=O)c1ccc(Cl)cc1)N1CCN(CC2CCCCC2)CC1` [Example A11, (3-(4-chlorophenylsulfonyl)-1H-indol-2-yl)(4-(cyclohexylmethyl)piperazin-1-yl)methanone], the EC50 was found to be 32 nM.
As to `O=C(c1[nH]c2ccccc2c1S(=O)(=O)c1ccc(Cl)cc1)N1CCN(Cc2ccc3c(c2)OCO3)CC1` [Example A12, (4-(benzo[d][1,3]dioxol-5-ylmethyl)piperazin-1-yl)(3-(4-chlorophenylsulfonyl)-1H-indol-2-yl)methanone], the EC50 is 40 nM.
As for `CN(Cc1ccccc1)C1CCN(C(=O)c2[nH]c3ccccc3c2S(=O)(=O)c2ccc(Cl)cc2)CC1` [Example A19, (4-(benzyl(methyl)amino)piperidin-1-yl)(3-(4-chlorophenylsulfonyl)-1H-indol-2-yl)methanone], the EC50 was 533 nM.
For `CN(CCOc1ccccc1)C(=O)c1[nH]c2ccccc2c1S(=O)(=O)c1ccc(Cl)cc1` [Example A20, 3-(4-chlorophenylsulfonyl)-N-methyl-N-(2-phenoxyethyl)-1H-indole-2-carboxamide] the value was 192 nM.
Turning to `O=C(c1[nH]c2ccccc2c1S(=O)(=O)c1ccc(Cl)cc1)N1CCN(Cc2ccncc2)CC1` [Example A22, (3-(4-chlorophenylsulfonyl)-1H-indol-2-yl)(4-(pyridin-4-ylmethyl)piperazin-1-yl)methanone], the EC50 was 435 nM.
For `O=C(NCCCCc1ccccc1)c1[nH]c2ccccc2c1S(=O)(=O)c1ccc(Cl)cc1` [Example A23, 3-(4-chlorophenylsulfonyl)-N-(4-phenylbutyl)-1H-indole-2-carboxamide] the value was 396 nM; for `O=C(c1[nH]c2ccccc2c1S(=O)(=O)c1ccc(Cl)cc1)N1CCCCC1` [Example A24, (3-(4-chlorophenylsulfonyl)-1H-indol-2-yl)(piperidin-1-yl)methanone], 574 nM.
To `O=C(c1oc2ccccc2c1S(=O)(=O)c1ccc(Cl)cc1)N1CCC(Oc2ccc(C(F)(F)F)cc2)CC1` [Example A29, (3-(4-Chlorophenylsulfonyl)benzofuran-2-yl)(4-(4-(trifluoromethyl)phenoxy)piperidin-1-yl)methanone] belongs 54 nM; to `O=C(c1oc2ccccc2c1S(=O)(=O)c1ccc(Cl)cc1)N1CCN(Cc2ccccc2)CC1` [Example A30, (4-benzylpiperazin-1-yl)(3-(4-chlorophenylsulfonyl)benzofuran-2-yl)methanone], 187 nM.
For `O=C(c1[nH]c2c(F)cccc2c1S(=O)(=O)c1ccc(Cl)cc1)N1CCC(Cc2ccccc2)CC1` [Example B1, (4-benzylpiperidin-1-yl)(3-(4-chlorophenylsulfonyl)-7-fluoro-1H-indol-2-yl)methanone] the value was 22 nM; for `O=C(c1[nH]c2ccccc2c1S(=O)(=O)Cc1ccccc1)N1CCC(Cc2ccccc2)CC1` [Example B2, (4-benzylpiperidin-1-yl)(3-benzylsulfonyl-1H-indol-2-yl)methanone], 210 nM.
For `O=C(c1[nH]c2ccccc2c1SC1CCCCC1)N1CCC(Cc2ccccc2)CC1` [Example B3, (4-benzylpiperidin-1-yl)(3-(cyclohexylthio)-1H-indol-2-yl)methanone], the EC50 was found to be 755 nM.
To `O=C(c1[nH]c2ccccc2c1S(=O)(=O)C1CCCCC1)N1CCC(Cc2ccccc2)CC1` [Example B4] belongs 149 nM; to `Cn1c(C(=O)N2CCC(Cc3ccccc3)CC2)c(S(=O)(=O)c2ccc(Cl)cc2)c2ccccc21` [Example B5, (4-Benzylpiperidin-1-yl)(3-(4-chlorophenylsulfonyl)-1-methyl-1H-indol-2-yl)methanone], 169 nM.
For `O=C(c1[nH]c2ccccc2c1S(=O)(=O)CCc1ccccc1)N1CCC(Cc2ccccc2)CC1` [Example B11, (4-benzylpiperidin-1-yl)(3-(phenethylsulfonyl)-1H-indol-2-yl)methanone] the value was 42 nM.
For `O=C(c1[nH]c2ccccc2c1Sc1ccccc1)N1CCC(Cc2ccccc2)CC1` [Example C1, (4-Benzylpiperidin-1-yl)(3-(phenylthio)-1H-indol-2-yl)methanone] the value was 454 nM.
Regarding `O=C(c1[nH]c2ccccc2c1Sc1ccc(Cl)cc1)N1CCC(Cc2ccccc2)CC1` [Example C2, (4-benzylpiperidin-1-yl)(3-(4-chlorophenylthio)-1H-indol-2-yl)methanone], the EC50 was determined as 180 nM.
